Experimental data reported in paper PMC5872323, “The Plant Defensin NaD1 Enters the Cytoplasm of Candida albicans via Endocytosis” (Journal of Fungi, 2018).
Where no end group is shown, it is not given here.

Tests used:
C. albicans DAY185 [1] = test: Flow cytometry cell death assay (PI positive cells) at 30 °C or 4 °C; assay type: cell-based, Candida albicans; details: 0, 5, 10 or 20 µM peptide, 5 µM PI, 30 min, half-strength PDB, three biological replicates
Method: (§1) C. albicans DAY185 overnight cultures were diluted in half-strength potato dextrose broth (PDB) to an OD600 of 0.2 and grown for 3 h (30 °C, 250 rpm) before they were diluted again to an OD600 of 0.1 with half-strength PDB and used in cell death and NaD1 uptake assays. Cell death assays were conducted by treating 300 µL of C. albicans cells with 0, 5, 10 or 20 µM of native NaD1 or LL-37 and 5 µM PI. NaD1 uptake at 4 °C was measured by treating 300 µL of cells with 0, 5 or 10 µM BODIPY-labelled NaD1. All treatments were conducted for 30 min at either 30 °C or 4 °C without shaking and in the dark. […] For BODIPY-labelled NaD1, cells were excited at 488 nm and emission was detected using a 530/30 filter. For PI, cells were excited at 488 nm and emission was detected using a 670LP filter. Data were analysed using Weasel v3.0 (Walter and Eliza Hall Institute, Parkville, Australia).
(§2) Figure 2 NaD1 induced cell death and uptake is reduced at 4 °C. […] PI (5 µM) was added for quantitation of cell death. Cells with PI fluorescence were counted using a flow cytometer to separate living and dead cells at both 30 °C (grey shading) and 4 °C (black line). Data is a representative example from three independent experiments; (Aii) The percentage of PI positive cells (percent cell death) relative to total cell counts was also calculated for three biological replicates and is shown in a bar graph. […]

C. albicans DAY185 [2] = test: Fungal growth inhibition assay; assay type: cell-based, Candida albicans; details: half-strength PDB, 30 °C, 24 h, absorbance 595 nm, n = 3
Method: (§3) Fungal growth inhibition assays were performed essentially as described in [30]. Overnight cultures of C. albicans cells were diluted to 5000 cells/mL with half-strength PDB. For growth inhibition assays in the presence of latrunculin A, 80 µL of diluted C. albicans DAY185 cells were added to 10 µL of latrunculin A and 10 µL of NaD1 in a 96 well microtiter plate (Greiner, Kremsmünster, Austria) to final concentrations of 2.5, 3, 4 and 4.5 µM NaD1 and 0 or 20 μM latrunculin A (AdipoGen). For brefeldin A and nocodazole assays, 80 µL of diluted C. albicans DAY185 cells was added to 10 µL of inhibitor and 10 µL of NaD1 in a microtiter plate. Brefeldin A (Sigma) and nocodazole where serially diluted (two-fold) down the plate with top final concentrations of 40 µM and 20 µM respectively. NaD1 was added to all wells at a final concentration of 2.5 µM. No-inhibitor controls were also included. For testing the antifungal activity of NaD1 against the C. albicans ESCRT mutants, 80 µL of diluted cells (DAY286 wild type and mutants) were added to 20 µL of NaD1 serially diluted from a top final concentration of 10 µM. All plates were incubated at 30 °C overnight without shaking. Growth of cells was monitored by measuring absorbance at 595 nm in a SpectraMAX M5e plate reader (Molecular Devices, San Jose, CA, USA). Measurements were taken at t = 0 and t = 24 h.

C. albicans bro1Δ = test: Fungal growth inhibition assay, ESCRT mutant; assay type: cell-based, Candida albicans; details: half-strength PDB, 30 °C, 24 h, absorbance 595 nm, IC50 ± standard deviation, n = 4
Description: (§4) All C. albicans strains were obtained from the fungal genetic stock centre and are described in [26, 27, 28]. Strains were derived from the BWP17 background strain (ura3::imm434/ura3::imm434 iro1/iro1::imm434 his1::hisG/his1::hisG arg4/arg4). The DAY185 wild-type C. albicans strain (ARG4+, URA3+, HIS1+) was used in most assays. For testing of C. albicans ESCRT mutants, DAY286 (ARG4+, URA3+, his1-) was used as the wild-type strain. C. albicans ESCRT (ARG4+, URA3+, his1-) mutants were produced by transposon insertion. Strains were grown in yeast extract-peptone dextrose (YPD) at 30 °C with shaking (250 rpm). For C. albicans mutant strains, YPD was supplemented with 80 µg/mL uridine.
as §3

C. albicans snf7Δ = test: Fungal growth inhibition assay, ESCRT mutant; assay type: cell-based, Candida albicans; details: half-strength PDB, 30 °C, 24 h, absorbance 595 nm, IC50 ± standard deviation, n = 4
Description: as §4, §3

C. albicans vps36Δ = test: Fungal growth inhibition assay, ESCRT mutant; assay type: cell-based, Candida albicans; details: half-strength PDB, 30 °C, 24 h, absorbance 595 nm, IC50 ± standard deviation, n = 4
Description: as §4, §3

C. albicans vps28Δ = test: Fungal growth inhibition assay, ESCRT mutant; assay type: cell-based, Candida albicans; details: half-strength PDB, 30 °C, 24 h, absorbance 595 nm, IC50 ± standard deviation, n = 4
Description: as §4, §3

C. albicans vps24Δ = test: Fungal growth inhibition assay, ESCRT mutant; assay type: cell-based, Candida albicans; details: half-strength PDB, 30 °C, 24 h, absorbance 595 nm, IC50 ± standard deviation, n = 4
Description: as §4, §3

C. albicans vps2Δ = test: Fungal growth inhibition assay, ESCRT mutant; assay type: cell-based, Candida albicans; details: half-strength PDB, 30 °C, 24 h, absorbance 595 nm, IC50 ± standard deviation, n = 4
Description: as §4, §3

C. albicans vps23Δ = test: Fungal growth inhibition assay, ESCRT mutant; assay type: cell-based, Candida albicans; details: half-strength PDB, 30 °C, 24 h, absorbance 595 nm, IC50 ± standard deviation, n = 4
Description: as §4, §3

C. albicans DAY286 (WT) = test: Fungal growth inhibition assay, ESCRT wild type; assay type: cell-based, Candida albicans; details: half-strength PDB, 30 °C, 24 h, absorbance 595 nm, IC50 ± standard deviation, n = 4
Description: as §4
Fungal growth inhibition assays were performed essentially as described in [30]. Overnight cultures of C. albicans cells were diluted to 5000 cells/mL with half-strength PDB. For growth inhibition assays in the presence of latrunculin A, 80 µL of diluted C. albicans DAY185 cells were added to 10 µL of latrunculin A and 10 µL of NaD1 in a 96 well microtiter plate (Greiner, Kremsmünster, Austria) to final concentrations of 2.5, 3, 4 and 4.5 µM NaD1 and 0 or 20 μM latrunculin A (AdipoGen). […] Growth of cells was monitored by measuring absorbance at 595 nm in a SpectraMAX M5e plate reader (Molecular Devices, San Jose, CA, USA). […]

C. albicans DAY185 [3] = details: growth inhibition of C. albicans DAY185, previously reported; cited from earlier work
C. albicans DAY185 [4] = test: Confocal microscopy of BODIPY-NaD1 uptake after CCCP or latrunculin A pre-treatment (cell counts); assay type: cell-based, Candida albicans; details: 0 µM CCCP (no-inhibitor control), 10 µM BODIPY-NaD1 for 10 min, n = 4
Method: C. albicans DAY185 overnight cultures were diluted in half-strength potato dextrose broth (PDB; Becton Dickinson, Scoresby, Australia) to an OD600 of 0.2 and grown for a further three hours (30 °C, 250 rpm). Cells were then diluted to an OD600 of 0.3 with half-strength PDB. For time course experiments, 300 µL aliquots (in 1.5 mL microcentrifuge tubes) were pre-treated with 5 µM propidium iodide (PI; Sigma, St Louis, MO, USA) for 10 min prior to addition of BODIPY- labelled NaD1. For CCCP and latrunculin A experiments, yeast cells were pre-treated with 50 µM CCCP (Sigma) or 100 µM latrunculin A (AdipoGen, Liestal, Switzerland) for 2 h (30 °C, 250 rpm) before addition of 5 µM PI. BODIPY-NaD1 (10 µM) was then added and cells were monitored using a Zeiss LSM510/ConfoCor confocal with images taken every 5 sec. BODIPY was excited at 488 nm (Argon laser) and emission was detected at 505 to 530 nm. PI was excited at 561 nm (DPSS laser) and fluorescence was monitored at 575 to 615 nm. Images were captured using Zen2009 (Zeiss, Oberkochen, Germany) software and analysed using FIJI (Bethesda, Rockville, MD, USA). Brightness and contrast for Figure 1, Figure 3 and Figure 4 were adjusted using the auto-brightness/contrast function of FIJI.
Figure 3 NaD1 uptake is reduced after treatment with CCCP. […]

C. albicans DAY185 [5] = test: Flow cytometry BODIPY-NaD1 uptake at 30 °C or 4 °C; assay type: cell-based, Candida albicans; details: 0, 5 or 10 µM BODIPY-NaD1, 30 min, half-strength PDB, three biological replicates
Method: as §1, §2

With “NaD1: plant defensin from ornamental tobacco, purified from the flowers of Nicotiana alata (RECKTESNTFPGICITKPPCRKACISEKFTDGHCSKILRRCLCTKPC; ends and bridges not checked; cysteine pairing not given here; UniProt Q8GTM0 26-72, looked up)” the “cell death (PI positive cells) at 4 °C compared to 30 °C” value (C. albicans DAY185 [1]) was “less cell death”, the “growth of cells with NaD1 plus brefeldin A versus NaD1 only” value (C. albicans DAY185 [2]; 2.5 µM NaD1 with 20 µM brefeldin A) was “No significant difference” and the “growth inhibition by NaD1 in the presence of latrunculin A” value (C. albicans DAY185 [2]; 2.5 µM NaD1 with 20 µM latrunculin A, 5000 cells/mL) was “reduced”. The “growth of cells with NaD1 plus nocodazole versus NaD1 only” value (C. albicans DAY185 [2]; 2.5 µM NaD1 with 20 µM nocodazole) was “No significant difference”, the “protection of cells from NaD1 by latrunculin A” value (C. albicans DAY185 [2]; 4 µM NaD1 with 20 µM latrunculin A, 5000 cells/mL) was “did not protect” and the IC50 (C. albicans bro1Δ) was 2100 ± 350 nM. The IC50 (C. albicans snf7Δ) was 1900 ± 450 nM, the IC50 (C. albicans vps36Δ) was 1700 ± 280 nM and the IC50 (C. albicans vps28Δ) was 1600 ± 330 nM. For the same substance, the IC50 (C. albicans vps24Δ) was 2100 ± 330 nM, the IC50 (C. albicans vps2Δ) was 1800 ± 400 nM and the IC50 (C. albicans vps23Δ) was 1800 ± 430 nM. The IC50 (C. albicans DAY286 (WT)) was 1800 ± 490 nM and the IC50 (C. albicans DAY185 [3]) was 2300 ± 600 nM.
With “BODIPY-NaD1: NaD1 fluorescently labelled with BODIPY-FL-EDA (RECKTESNTFPGICITKPPCRKACISEKFTDGHCSKILRRCLCTKPC; BODIPY-FL-EDA label; UniProt Q8GTM0 26-72, looked up)” the “cells with BODIPY-labelled NaD1 accumulated on the cell surface, relative to total cell counts” value (C. albicans DAY185 [4]) was “about 21%” and the “cells containing BODIPY-labelled NaD1 in the cytoplasm at 4 °C compared to 30 °C” value (C. albicans DAY185 [5]) was “Fewer cells”.
